“Also recorded” adds a separate entry of the source.
What was measured:
Assay type in all cases: physicochemical
[1] = 1-week stability assessment (40 °C/75% RH, 80 °C, ambient light; XRPD, HPLC purity)
Description: XRPD analysis was carried out on a sample of 5 g of CHP Hydrate. The sample was weighed in a glass vial, and 6 mL of a 90:10 ethanol/water mixture was added to make a slurry. The mixture was then agitated for approximately 24 hours at ambient temperature and then analyzed by XRPD. […] XPRD analysis was carried out to assess any change in the form of the material.

[2] = Variable temperature dynamic vapour sorption (VT-DVS) at 40, 50, 60 °C; conditions: for Post-VT-DVS XRPD form: after cycles at 40, 50 and 60 °C
Description: (§1) Approximately, 10-20 mg of sample was placed into a mesh vapor sorption balance pan and loaded into a DVS Advantage dynamic vapor sorption balance by Surface Measurement Systems. The sample was subjected to a ramping profile from 40-90% relative humidity (RH) at 10% increments, maintaining the sample at each step until a stable weight had been achieved (dm/dt 0.004%, minimum step length 30 minutes, maximum step length 500 minutes) at 40° C. After completion of the sorption cycle, the sample was dried using the same procedure to 0% RH and then a second sorption cycle back to 40% RH. The weight change during the sorption/desorption cycles were plotted, allowing for the hygroscopic nature of the sample to be determined. The experiment was repeated at 50° C. and finally at 60° C. XRPD analysis was then carried out on any solid retained.

[3] = Dynamic vapor sorption (DVS) at 25 °C with post-DVS XRPD; conditions: for Post-DVS XRPD form: after DVS cycles at 25 °C
Description: DVS was carried out by placing an approximately 10-20 mg sample into a mesh vapour sorption balance pan and loaded into a DVS Intrinsic Dynamic Vapour Sorption Balance by Surface Measurement Systems. The sample was subjected to a ramping profile from 40 to 90% relative humidity (RH) at 10% increments, maintaining the sample at each step until a stable weight had been achieved (dm/dt 0.004%, minimum step length 30 minutes, maximum step length 500 minutes) at 25° C. After completion of the sorption cycle, the sample was dried using the same procedure to 0% RH and then a second sorption cycle back to 40% RH. Two cycles were performed. The weight change during the sorption/desorption cycles were plotted, allowing for the hygroscopic nature of the sample to be determined. XRPD analysis was then carried out on any solid retained.
as §1, with “Intrinsic” for “Advantage”, “25°” for “40°”, “RH. Two cycles were performed.” for “RH.”, “determined.” for “determined. The experiment was repeated at 50° C. and finally at 60° C.”

[4] = 1-week stability assessment (40 °C/75% RH, 80 °C, ambient light; XRPD, HPLC purity); remark: listed apart in the source

XRPD form after storage ([1]; 7 days at 40 °C/75% RH): No change in form
XRPD form after storage ([1]; 7 days at 40 °C/75% RH, listed as pattern 2): remain as pattern 2
XRPD form after storage ([1]; 7 days at 40 °C/75% RH, listed as pattern 2 CHP): remained as pattern 2
XRPD form after storage ([1]; 7 days at 80 °C): convert to pattern 1
XRPD form after storage ([1]; 7 days at 80 °C, listed as pattern 2): dehydration from pattern 2 to pattern 1
XRPD form after storage ([1]; 7 days at 80 °C, listed as pattern 2 CHP): converted to pattern 1
XRPD form after storage ([1]; 7 days in ambient light): No change in form
XRPD form after storage ([1]; 7 days in ambient light, listed as pattern 2): remain as pattern 2
XRPD form after storage ([1]; 7 days in ambient light, listed as pattern 2 CHP): remained as pattern 2
VT-DVS water loss in equivalents ([2]; 40 °C, from 10 to 0% RH): 0.8 equiv water
VT-DVS weight loss ([2]; 40 °C, from 10 to 0% RH): approx. 5.8 wt %
VT-DVS weight loss ([2]; 40 °C, from 10 to 0% RH, listed as CHP Hydrate, Pattern 2): 5.8 wt %
VT-DVS weight loss ([2]; 40 °C, from 10 to 0% RH, listed as CHP pattern 2): approximately 5.8 wt %
VT-DVS water loss in equivalents ([2]; 50 °C, from 20 to 0% RH): 0.8 equiv water
VT-DVS weight loss ([2]; 50 °C, from 20 to 0% RH): approximately 6.1 wt %
VT-DVS weight loss ([2]; 50 °C, from 20 to 0% RH, listed as CHP Hydrate, Pattern 2): 6.1 wt %
VT-DVS weight loss ([2]; 50 °C, from 20 to 0% RH, listed as CHP pattern 2): approx. 6.1 wt %
VT-DVS water loss in equivalents ([2]; 60 °C, from 20 to 0% RH): 1.0 equiv water
VT-DVS weight loss ([2]; 60 °C, from 20 to 0% RH): approximately 7 wt %
VT-DVS weight loss ([2]; 60 °C, from 20 to 0% RH, listed as CHP Hydrate, Pattern 2): 7 wt %
VT-DVS weight loss ([2]; 60 °C, from 20 to 0% RH, listed as CHP pattern 2): approx. 7 wt %
RH below which dehydration starts ([2]; VT-DVS at 40 °C): below 10 % RH
RH below which dehydration starts ([2]; VT-DVS at 50 °C): below 20 % RH
RH below which dehydration starts ([2]; VT-DVS at 60 °C): below 20 % RH
Post-VT-DVS XRPD form [2]: mixture of Patterns 1 and 2
Post-DVS XRPD form [3]: no change in form
Post-DVS XRPD form ([3]; listed as CHP pattern 2): no change in form
DVS water loss in equivalents ([3]; below 10% RH, 25 °C): 0.5 equiv. water
DVS weight loss ([3]; below 10% RH, 25 °C): 3.5 wt. %
Purity after 1 week ([4]; HPLC, 40 °C/75% RH): 99.5%
Purity after 1 week ([4]; HPLC, 80 °C): 99.4%
Purity after 1 week ([4]; HPLC, Ambient): 99.5%
Purity of starting material ([4]; HPLC, before storage): 99.5%
Structure (SMILES): O=C1N[C@@H](Cc2cnc[nH]2)C(=O)N2CCC[C@@H]12 [Pattern 2, Pyrrolo [1,2-a]pyrazine-1,4-dione, hexahydro-3-(1H-imidazol-5-ylmethyl)-, hydrate (1:1), (3S, 8aS)-]
Post-VT-DVS XRPD form ([2]; listed as CHP pattern 2): mixture of pattern 1 and pattern 2; also recorded: mixture of pattern 1 and 2
Change in HPLC purity after 7 days ([4]; all conditions (40 °C/75% RH, 80 °C, ambient light)): no drop in purity; also recorded: No change in purity

Reference: patent US12534496B2, “Polymorphic forms of Cyclo (-His-Pro) and methods of use to treat kidney disease” (NovMetaPharma Co., Ltd., priority 2018, dated 2026)
